Test results reported in patent publication US20260083851A1 (AVILAR THERAPEUTICS, INC., priority 2022, published 2026).

What follows are compounds tested against T1, ASGP receptor (biotinylated ASGPR) (Homo sapiens, UniProt P07306). Conditions: SPR, Biacore 8K, 25° C.; Table 1A; read-out: ASGPR KD.
T1 construct: biotin (biotinylated)
T1 sequence (P07306 1-291): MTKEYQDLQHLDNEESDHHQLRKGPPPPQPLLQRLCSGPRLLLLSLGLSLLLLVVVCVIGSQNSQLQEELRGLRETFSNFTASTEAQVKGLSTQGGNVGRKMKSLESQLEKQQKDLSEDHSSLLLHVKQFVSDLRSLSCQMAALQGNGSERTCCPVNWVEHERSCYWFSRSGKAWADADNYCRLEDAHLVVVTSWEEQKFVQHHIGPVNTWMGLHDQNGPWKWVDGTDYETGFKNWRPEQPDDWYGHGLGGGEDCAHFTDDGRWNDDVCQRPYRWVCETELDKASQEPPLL
Format: binding

Compound | Kd [µM]
NCCCCCC(=O)NC(COCCC(=O)NCCOCCOCCOCCOC[C@H]1OC[C@H](Nc2nccc(C(F)(F)F)n2)[C@@H](O)[C@H]1O)COCCC(=O)NCCOCCOCCOCCOC[C@H]1OC[C@H](Nc2nccc(C(F)(F)F)n2)[C@@H](O)[C@H]1O [A45, 3,3′-((2-(6-aminohexanamido)propane-1,3-diyl)bis(oxy))bis(N-(1-((2R,3R,4R,5S)-3,4-dihydroxy-5-((4-(trifluoromethyl)pyrimidin-2-yl)amino)tetrahydro-2H-pyran-2-yl)-2,5,8,11-tetraoxatridecan-13-yl)propanamide)] | < 10
O=C(O)c1ccc(-c2ccc(C(=O)NC[C@H]3OC[C@H](Nc4cncc(C(F)(F)F)n4)[C@@H](O)[C@H]3O)cc2)cc1 [A38, 4′-((((2R,3R,4R,5S)-3,4-dihydroxy-5-((6-(trifluoromethyl)pyrazin-2-yl)amino)tetrahydro-2H-pyran-2-yl)methyl)carbamoyl)-[1,1′-biphenyl]-4-carboxylic acid] | < 10
O=C(O)c1cc2ccc1CCc1ccc(c(C(=O)NC[C@H]3OC[C@H](Nc4cncc(C(F)(F)F)n4)[C@@H](O)[C@H]3O)c1)CC2 [A66, 4^3-((((2R,3R,4R,5S)-3,4-dihydroxy-5-((6-(trifluoromethyl)pyrazin-2-yl)amino)tetrahydro-2H-pyran-2-yl)methyl)carbamoyl)-1,4(1,4)-dibenzenacyclohexaphane-1^2-carboxylic acid] | < 10
O=C(NC[C@H]1OC[C@H](Nc2cncc(C(F)(F)F)n2)[C@@H](O)[C@H]1O)c1cnc2c(c1)CCNC2 [A76, N-(((2R,3R,4R,5S)-3,4-dihydroxy-5-((6-(trifluoromethyl)pyrazin-2-yl)amino)tetrahydro-2H-pyran-2-yl)methyl)-5,6,7,8-tetrahydro-1,7-naphthyridine-3-carboxamide] | < 10
O=C(NC[C@H]1OC[C@H](Nc2cncc(C(F)(F)F)n2)[C@@H](O)[C@H]1O)c1cnc2ccccc2n1 [A71, N-(((2R,3R,4R,5S)-3,4-dihydroxy-5-((6-(trifluoromethyl)pyrazin-2-yl)amino)tetrahydro-2H-pyran-2-yl)methyl)quinoxaline-2-carboxamide] | < 10
O=C(O)COCCOCC(=O)NC[C@H]1OC[C@H](Nc2ccnc(C(F)(F)F)n2)[C@@H](O)[C@H]1O [A116, 2-(2-(2-((((2R,3R,4R,5S)-3,4-dihydroxy-5-((2-(trifluoromethyl)pyrimidin-4-yl)amino)tetrahydro-2H-pyran-2-yl)methyl)amino)-2-oxoethoxy)ethoxy)acetic acid] | < 10
O[C@@H]1[C@H](O)[C@@H](Nc2cncc(C(F)(F)F)n2)CO[C@@H]1CN1CCCCCC1 [A70, (2R,3R,4R,5S)-2-(azepan-1-ylmethyl)-5-((6-(trifluoromethyl)pyrazin-2-yl)amino)tetrahydro-2H-pyran-3,4-diol] | < 10

Results, then the compound that gave them:

Kd [µM] | Compound
< 10 | O=C(NC[C@H]1OC[C@H](Nc2cncc(C(F)(F)F)n2)[C@@H](O)[C@H]1O)Nc1ccccc1 [A114, 1-(((2R,3R,4R,5S)-3,4-dihydroxy-5-((6-(trifluoromethyl)pyrazin-2-yl)amino)tetrahydro-2H-pyran-2-yl)methyl)-3-phenylurea]
< 10 | O=C(NC[C@H]1OC[C@H](Nc2cncc(C(F)(F)F)n2)[C@@H](O)[C@H]1O)c1ccc2[nH]cnc2n1 [A69, N-(((2R,3R,4R,5S)-3,4-dihydroxy-5-((6-(trifluoromethyl)pyrazin-2-yl)amino)tetrahydro-2H-pyran-2-yl)methyl)-1H-imidazo[4,5-b]pyridine-5-carboxamide]
< 10 | O=C(NC[C@H]1OC[C@H](Nc2cncc(C(F)(F)F)n2)[C@@H](O)[C@H]1O)c1ccncc1 [A80, N-(((2R,3R,4R,5S)-3,4-dihydroxy-5-((6-(trifluoromethyl)pyrazin-2-yl)amino)tetrahydro-2H-pyran-2-yl)methyl)isonicotinamide]
< 10 | NC[C@H]1OC[C@H](Nc2nc(C(F)(F)F)ccc2F)[C@@H](O)[C@H]1O [A99, (2R,3R,4R,5S)-2-(aminomethyl)-5-((3-fluoro-6-(trifluoromethyl)pyridin-2-yl)amino)tetrahydro-2H-pyran-3,4-diol]
< 10 | O=C(NC[C@H]1OC[C@H](Nc2cncc(C(F)(F)F)n2)[C@@H](O)[C@H]1O)c1ccc(-c2ccccc2)cc1 [A10, N-(((2R,3R,4R,5S)-3,4-dihydroxy-5-((6-(trifluoromethyl)pyrazin-2-yl)amino)tetrahydro-2H-pyran-2-yl)methyl)-[1,1′-biphenyl]-4-carboxamide]

Same assay, conditions: SPR, Biacore 8K, 25° C.; Table 1B, numeric bound; read-out: ASGPR Kd

Kd [µM] | Compound
> 30 | OC[C@H]1OC[C@H](NC2CCC2)[C@@H](O)[C@H]1O [A166, (2R,3R,4R,5S)-5-(cyclobutylamino)-2-(hydroxymethyl)tetrahydro-2H-pyran-3,4-diol]
> 30 | CC(C)N[C@H]1CO[C@H](CO)[C@H](O)[C@@H]1O [A163, (2R,3R,4R,5S)-2-(hydroxymethyl)-5-(isopropylamino)tetrahydro-2H-pyran-3,4-diol]

Same assay, conditions: SPR, Biacore 8K, 25° C.; Table 1B; read-out: ASGPR Kd

Kd [µM] | Compound
< 10 | COc1cccc(N[C@H]2CO[C@H](CO)[C@H](O)[C@@H]2O)n1 [A164, (2R,3R,4R,5S)-2-(hydroxymethyl)-5-((6-methoxypyridin-2-yl)amino)tetrahydro-2H-pyran-3,4-diol]
< 10 | O[C@@H]1[C@H](O)[C@@H](Nc2cncc(C(F)(F)F)n2)CO[C@@H]1CF [A162, (2S,3R,4R,5S)-2-(fluoromethyl)-5-((6-(trifluoromethyl)pyrazin-2-yl)amino)tetrahydro-2H-pyran-3,4-diol]

Same assay, conditions: SPR, Biacore 8K, 25° C.; Table 1C; read-out: ASGPR KD

Compound | Kd [µM]
O=C1CCCN1C[C@H]1OC[C@H](Nc2cccc(C(F)(F)F)n2)[C@@H](O)[C@H]1O [A285] | < 10
O[C@@H]1[C@H](O)[C@@H](Oc2cccc(C(F)(F)F)n2)CO[C@@H]1COc1ccc(N2CCNCC2)c(F)c1 [A247] | < 10
O[C@@H]1[C@H](O)[C@@H](Oc2cccc(C(F)(F)F)n2)CO[C@@H]1CN1CCN(c2ccncn2)CC1 [A284] | < 10
O=C(O)c1cnc(OC[C@H]2OC[C@H](Nc3cncc(C(F)(F)F)n3)[C@@H](O)[C@H]2O)nc1 [A194, 2-(((2R,3R,4R,5S)-3,4-dihydroxy-5-((6-(trifluoromethyl)pyrazin-2-yl)amino)tetrahydro-2H-pyran-2-yl)methoxy)pyrimidine-5-carboxylic acid] | < 10
O=C1c2sccc2CN1C[C@H]1OC[C@H](Oc2cccc(C(F)(F)F)n2)[C@@H](O)[C@H]1O [A291] | < 10
O[C@@H]1[C@H](O)[C@@H](Oc2cccc(C(F)(F)F)n2)CO[C@@H]1COc1ccnnc1 [A288] | < 10
CC(C)(C)OC(=O)N1CCC(n2cc([C@H]3OC[C@H](Nc4cncc(C(F)(F)F)n4)[C@@H](O)[C@H]3O)nn2)CC1 [A193, tert-butyl 4-(4-((2R,3R,4R,5S)-3,4-dihydroxy-5-((6-(trifluoromethyl)pyrazin-2-yl)amino)tetrahydro-2H-pyran-2-yl)-1H-1,2,3-triazol-1-yl)piperidine-1-carboxylate] | < 10
OCc1cnc(OC[C@H]2OC[C@H](Nc3cncc(C(F)(F)F)n3)[C@@H](O)[C@H]2O)nc1 [A222, (2R,3R,4R,5S)-2-(((5-(hydroxymethyl)pyrimidin-2-yl)oxy)methyl)-5-((6-(trifluoromethyl)pyrazin-2-yl)amino)tetrahydro-2H-pyran-3,4-diol] | < 10
O[C@@H]1[C@H](O)[C@@H](Oc2cccc(C(F)(F)F)n2)CO[C@@H]1CSc1ccccc1 [A304] | < 10
O[C@@H]1[C@H](O)[C@@H](Oc2cccc(C(F)(F)F)n2)CO[C@@H]1CN1CCN(c2ccccc2)CC1 [A242] | < 10

Continued, values first:

Kd [µM] | Compound
< 10 | Cc1cncc(N[C@H]2CO[C@H](CO)[C@H](O)[C@@H]2O)n1 [A180, (2R,3R,4R,5S)-2-(hydroxymethyl)-5-((6-methylpyrazin-2-yl)amino)tetrahydro-2H-pyran-3,4-diol]
< 10 | O=C(O)c1ccc(CN2CCN(C[C@H]3OC[C@H](Nc4cncc(C(F)(F)F)n4)[C@@H](O)[C@H]3O)CC2)cc1F [A204, 4-((4-(((2R,3R,4R,5S)-3,4-dihydroxy-5-((6-(trifluoromethyl)pyrazin-2-yl)amino)tetrahydro-2H-pyran-2-yl)methyl)piperazin-1-yl)methyl)-2-fluorobenzoic acid]
< 10 | O[C@@H]1[C@H](O)[C@@H](Nc2cncc(C(F)(F)F)n2)CO[C@@H]1CN1Cc2ccccc2C1 [A231, (2R,3R,4R,5S)-2-(isoindolin-2-ylmethyl)-5-((6-(trifluoromethyl)pyrazin-2-yl)amino)tetrahydro-2H-pyran-3,4-diol]
< 10 | C[C@H]1O[C@@H](c2ncncc2F)[C@H](Oc2cccc(C(F)(F)F)n2)[C@@H](O)[C@H]1O [A337]

Same assay, conditions: SPR, Biacore 8K, 25° C.; Table 1D; read-out: ASGPR KD

Kd [µM] | Compound
< 10 | O[C@@H]1[C@@H](Oc2cccc(C(F)(F)F)n2)CN(c2ccc(C(F)(F)F)cn2)C[C@@H]1O [A427]
< 10 | O[C@@H]1[C@@H](Oc2cccc(C(F)(F)F)n2)CN(c2ncon2)C[C@@H]1O [A359]
< 10 | O[C@@H]1[C@@H](Oc2cccc(C(F)(F)F)n2)CN(c2cnccn2)C[C@@H]1O [A425]
< 10 | O=C(CCCCC(=O)N1C[C@H](Nc2cncc(C(F)(F)F)n2)[C@@H](O)[C@@H](O)C1)OCc1ccccc1 [A404]
< 10 | O=C(Oc1ccc(-c2ccccc2)cc1)N1C[C@H](Nc2cncc(C(F)(F)F)n2)[C@@H](O)[C@@H](O)C1 [A384]

Same assay, conditions: SPR, Biacore 8K, 25° C.; Table 1E; read-out: ASGPR KD

Kd [µM] | Compound
< 10 | C[C@H]1O[C@H](c2nnc(-c3ccccc3)o2)[C@H](Oc2cccc(C(F)(F)F)n2)[C@@H](O)[C@H]1O [A448]
< 10 | C[C@H]1O[C@H](COc2cccc(C(F)(F)F)n2)[C@H](Oc2cnccn2)[C@@H](O)[C@H]1O [A450]
